From patent publication US11999758B2, “Inhibitors of the YAP/TAZ-TEAD interaction and their use in the treatment of cancer” (INVENTIVA, priority 2018, dated 2024)

Assays:
[1] = molecular target: T1, YAP-TEAD interaction (Homo sapiens, UniProt P28347); experiment: Cell-based TEAD-GAL4 transactivation assay (luciferase reporter); details: HEK293 cells transfected with TEAD1-Gal4, YAP mutant (S127A, S397A) and luciferase reporter, compounds 0.1 μM to 30 μM; for Emax: HEK293, 24 h, read-out: TEAD-GAL4 Transactivation activity Max Act; for IC50: 24 h
T1 construct: expressed in transfected cells; host or cells: HEK293 GripTite 293 MSR (Invitrogen R795-07)
Procedure, shortened: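 HEK293 cells transiently transfected with Gal4-DBD–full-length human TEAD1, full-length YAP S127A/S397A (YAP/TEAD ratio 10) and a 5×GAL4-RE TK-luciferase reporter. Six hours later, compounds added semi-log from 0.1 to 30 μM (DMSO 0.5% control) for 24 h. Luciferase read; IC50 from 3-parameter fit.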

[2] = tested on: NCI-H2052 mesothelioma cell; experiment: Inhibition of malignant mesothelioma tumor cell growth (EdU proliferation); format: cell-based; details: NF2 mutated cell line; FIG. 1 (x)
Experimental: (§1) The tumor cell growth inhibitory activity of the YAP-TEAD interaction inhibitors was evaluated in NCI-H-2052 mesothelioma cell line harboring a NF2 mutation. This cell line was selected based on its mutational status and the ability of a siRNA directed against YAP, TAZ or TEAD1-4 to inhibit cell proliferation. The nuclear localization of YAP at confluence was also taken into account. Based on these observations we were able to classify several “YAP dependent cells” where YAP is clearly nuclear and in which a cell growth inhibition is observed by using siRNA (NCI-H-2052, SKOV-3, ACHN, A549) and the “YAP independent cells” where YAP is preferentially located in the cytoplasm and in which no inhibition of cell growth is observed by using a siRNA (SW620, Met-5a). […] After one day growth in the starvation medium, cells were incubated with compounds. The starting concentration was 30 μM and serial dilutions in DMSO and medium were performed until 0.1 μM to achieve a final DMSO concentration of 0.5%. The cells were then allowed to grow for 3 days, and then, EdU (Invitrogen, Molecular Probe) was added in each well at a final concentration of 10 μM and the cells were returned to the incubator for an additional 24 h. The starvation medium was removed and 100 μl of PFA 4% containing Hoechst dye was adding in each well to fix the cells. Plates were then incubated at rt for 15 min, washed twice with PBS and the cells were permeabilized by adding 100 μl per well of triton-100 containing 0.3% BSA. After 20 min, cells were washed with PBS and EdU detection was performed according to the instructions of the manufacturer. Image acquisition was performed using the ImageXpress Micro and analyzed using the MetaXpress software (Molecular Device). Results were expressed as a percent of inhibition (%) of the cell proliferation values obtained with 0.5% DMSO treatment alone. The cellular response was determined by fitting the concentration response curves using a 3 parameter curve fit equation and determining the concentration that inhibited cell growth between 50% and 100%.

[3] = tested on: Met5A cell line; experiment: Cell proliferation in YAP-independent cell line (EdU); format: cell-based; details: FIG. 1 (▪)
Experimental: as §1

T1 sequence (P28347 whole entry, the tested form may be a part): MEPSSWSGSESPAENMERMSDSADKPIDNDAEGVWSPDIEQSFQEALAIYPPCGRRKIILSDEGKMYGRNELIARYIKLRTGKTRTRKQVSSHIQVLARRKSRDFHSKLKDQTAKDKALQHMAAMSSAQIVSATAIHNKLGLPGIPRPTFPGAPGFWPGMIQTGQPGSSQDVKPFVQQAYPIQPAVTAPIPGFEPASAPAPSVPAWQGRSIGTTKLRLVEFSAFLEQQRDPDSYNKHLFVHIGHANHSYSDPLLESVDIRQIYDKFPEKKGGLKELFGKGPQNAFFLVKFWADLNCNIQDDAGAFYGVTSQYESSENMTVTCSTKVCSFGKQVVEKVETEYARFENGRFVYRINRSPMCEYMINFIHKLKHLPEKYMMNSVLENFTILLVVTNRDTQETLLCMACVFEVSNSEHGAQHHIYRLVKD

SMILES | Emax [1] [%] | IC50 [1] [µM] | melting point [°C] | NCI-H2052 mesothelioma cell proliferation [2] | effect in the Met5A cell line [3]
COc1cc(/C=N/N(CC(C)C)c2ncnc3ccsc23)ccc1B(O)O [Ex 20, [4-[(E)-[isobutyl(thieno[3,2-d]pyrimidin-4-yl)hydrazono]methyl]-2-methoxy-phenyl] boronic acid] | 87 | 1.34 |  | inhibited | without showing any effect
CSc1nc2ncnc(N(C)/N=C/c3ccc4c(c3)COB4O)c2s1 [Ex75, N-[(E)-(1-hydroxy-3H-2,1-benzoxaborol-5-yl)methyleneamino]-N-methyl-2-methylsulfanyl-thiazolo[4,5-d]pyrimidin-7-amine] | 94 | 0.9 | 262 to 286 | inhibited | without showing any effect
Cc1csc2c(N3N=C(c4ccc5c(c4)COB5O)CCC3C)ncnc12 (stereo not drawn) [Ex118, 4-[6-(1-hydroxy-3H-2,1-benzoxaborol-5-yi)-3-methyl-4,5-dihydro-3H-pyridazin-2-yl]-7-methyl-thieno[3,2-d]pyrimidine] | 86 | 0.27 |  | inhibited | without showing any effect
CCN(/N=C/c1ccc2c(c1)COB2O)c1ncnc2[nH]ccc12 [Ex 39, N-ethyl-N-[(E)-(1-hydroxy-3H-2,1-benzoxaborol-5-yl)methyleneamino]-7H-pyrrolo[2,3-d]pyrimidin-4-amine] | 81 | 1.2 | 245 |  | 
CN(/N=C/c1ccc2c(c1)COB2O)c1ncnc2c1[nH]c(=O)n2C [Ex98, 6-[[(E)-(1-hydroxy-3H-2,1-benzoxaborol-5-yl)methyleneamino]-methyl-amino]-9-methyl-7H-purin-8-one] | 86 | 1.31 | 180 to 200 |  | 
CCN(/N=C/c1ccc2c(c1)COB2O)C1=NS(=O)(=O)c2ccccc21 [Ex 27, N-ethyl-N-[(E)-(1-hydroxy-3H-2,1-benzoxaborol-5-yl)methyleneamino]-1,1-dioxo-1,2-benzothiazol-3-amine] | 83 | 6.46 | 218 |  | 
CN(/N=C/c1ccc2c(c1)COB2O)c1ncnc2c1cnn2C [Ex76, N-[(E)-(1-hydroxy-3H-2,1-benzoxaborol-5-yl)methyleneamino]-N,1-dimethyl-pyrazolo[3,4-d]pyrimidin-4-amine] | 86 | 0.96 | 250 to 260 |  | 
CN(/N=C/c1ccc2c(c1)COB2O)c1ncnc2c1CC(=O)N2C [Ex99, 4-[[(E)-(1-hydroxy-3H-2,1-benzoxaborol-5-yl)methyleneamino]-methyl-amino]-7-methyl-5H-pyrrolo[2,3-d]pyrimidin-6-one] | 91 | 2.12 | 288 to 307 |  | 
CCN(/N=C/c1ccc2c(c1)COB2O)c1ncnc2occc12 [Ex 43, N-ethyl-N-[(E)-(1-hydroxy-3H-2,1-benzoxaborol-5-yl)methyleneamino]furo[2,3-d]pyrimidin-4-amine] | 78 | 0.42 | 225 |  | 
CCN(/N=C/c1ccc2c(c1)COB2O)c1ncnc2nc(N3CCOCC3)sc12 [Ex82, N-ethyl-N-[(E)-(1-hydroxy-3H-2,1-benzoxaborol-5-yl)methyleneamino]-2-morpholino-thiazolo[4,5-d]pyrimidin-7-amine] | 89 | 2.37 | 183 to 189 |  | 
COc1cc(/C=N/N(CC(C)C)C2=NS(=O)(=O)c3ccccc32)ccc1B(O)O [Ex 1, [4-[(E)-[(1,1-dioxo-1,2-benzothiazol-3-yl)-isobutyl-hydrazono]methyl]-2-methoxy-phenyl]boronic acid] | 86 | 7.31 |  | inhibited | without showing any effect

Continued, in another order:

Emax [1] [%] | IC50 [1] [µM] | melting point [°C] | SMILES | NCI-H2052 mesothelioma cell proliferation [2] | effect in the Met5A cell line [3]
85 | 0.13 | 252 to 264 | COCCN(/N=C/c1ccc2c(c1)COB2O)c1ncnc2nc(SC)sc12.Cl [Ex95, N-[(E)-(1-hydroxy-3H-2,1-benzoxaborol-5-yl)methyleneamino]-N-(2-methoxyethyl)-2-methylsulfanyl-thiazolo[4,5-d]pyrimidin-7-amine, hydrochloride] |  | 
90 | 1.01 | 247 to 253 | CCN(/N=C/c1ccc2c(c1)COB2O)c1ncnc2nc(N(C)C)sc12 [Ex79, N7-ethyl-N7-[(E)-(1-hydroxy-3H-2,1-benzoxaborol-5-yl)methyleneamino]-N2,N2-dimethyl-thiazolo[4,5-d]pyrimidine-2,7-diamine] |  | 
81 | 0.26 |  | CCN(/N=C/c1ccc2c(c1)COB2O)c1ncnc2c(C)csc12 [Ex 42, N-ethyl-N-[(E)-(1-hydroxy-3H-2,1-benzoxaborol-5-yl)methyleneamino]-7-methyl-thieno[3,2-d]pyrimidin-4-amine] | inhibited | without showing any effect
82 | 0.32 | 231 | Cc1csc2c(N(C)/N=C/c3ccc4c(c3)COB4O)ncnc12 [Ex77, N-[(E)-(1-hydroxy-3H-2,1-benzoxaborol-5-yl)methyleneamino]-N,7-dimethyl-thieno[3,2-d]pyrimidin-4-amine] |  | 
94 | 0.23 | 248 to 264 | CCN(/N=C/c1ccc2c(c1)COB2O)c1ncnc2nc(SC)sc12.Cl [Ex83, N-ethyl-N-[(E)-(1-hydroxy-3H-2,1-benzoxaborol-5-yl)methyleneamino]-2-methylsulfanyl-thiazolo[4,5-d]pyrimidin-7-amine hydrochloride] |  | 
69 | 1.96 | 265 to 276 | CCN(/N=C/c1ccc2c(c1)COB2O)c1ncnc2c(C)n[nH]c12 [Ex80, N-ethyl-N-[(E)-(1-hydroxy-3H-2,1-benzoxaborol-5-yl)methyleneamino]-3-methyl-1H-pyrazolo[4,3-d]pyrimidin-7-amine] |  | 
80 | 0.46 | 240 to 253 | COCCN(/N=C/c1ccc2c(c1)COB2O)c1ncnc2c(C)csc12 [Ex94, N-[(E)-(1-hydroxy-3H-2,1-benzoxaborol-5-yl)methyleneamino]-N-(2-methoxyethyl)-7-methyl-thieno[3,2-d]pyrimidin-4-amine] |  | 
